Experiments:
Assay in all cases: Kinase assay, binding constants (Kd), kinase-tagged T7 phage, qPCR
FGFR4 = FGFR4 (Homo sapiens (Human), UniProt P22455)
Experimental: (§1) Kinase-tagged T7 phage strains were prepared in an E. coli host derived from the BL21 strain. E. coli were grown to log-phase and infected with T7 phage and incubated with shaking at 32° C. until lysis. The lysates were centrifuged and filtered to remove cell debris. Streptavidin-coated magnetic beads were treated with biotinylated small molecule ligands for 30 minutes at room temperature to generate affinity resins for kinase assays. The liganded beads were blocked with excess biotin and washed with blocking buffer SeaBlock (Pierce), […], 1 mM DTT to remove unbound ligand and to reduce non-specific binding.
(§2) Test compounds were prepared as 111λ stocks in 10000 DMS0. Kds were determined using an 11-point 3-fold compound dilution series with three DMSO control points. […] The compounds were then diluted directly into the assays such that the final concentration of DMSO was 0.9%. All reactions performed in polypropylene 384-well plate. Each was a final volume of 0.02 ml. […] The beads were then re-suspended in elution buffer (1×PBS, 0.05% Tween […] non-biotinylated affinity ligand) and incubated at room temperature with shaking for 30 minutes. The kinase concentration in the eluates was measured by qPCR.
(§3) Binding constants were calculated with a standard dose-response curve using the Hill equation: […]
(§4) The Hill Slope was set to −1. Curves were fitted using a non-linear least square fit with the Levenberg-Marquardt algorithm.

FGFR3 = FGFR3 (Homo sapiens (Human), UniProt P22607)
FGFR3, sequence (P22607 23-806): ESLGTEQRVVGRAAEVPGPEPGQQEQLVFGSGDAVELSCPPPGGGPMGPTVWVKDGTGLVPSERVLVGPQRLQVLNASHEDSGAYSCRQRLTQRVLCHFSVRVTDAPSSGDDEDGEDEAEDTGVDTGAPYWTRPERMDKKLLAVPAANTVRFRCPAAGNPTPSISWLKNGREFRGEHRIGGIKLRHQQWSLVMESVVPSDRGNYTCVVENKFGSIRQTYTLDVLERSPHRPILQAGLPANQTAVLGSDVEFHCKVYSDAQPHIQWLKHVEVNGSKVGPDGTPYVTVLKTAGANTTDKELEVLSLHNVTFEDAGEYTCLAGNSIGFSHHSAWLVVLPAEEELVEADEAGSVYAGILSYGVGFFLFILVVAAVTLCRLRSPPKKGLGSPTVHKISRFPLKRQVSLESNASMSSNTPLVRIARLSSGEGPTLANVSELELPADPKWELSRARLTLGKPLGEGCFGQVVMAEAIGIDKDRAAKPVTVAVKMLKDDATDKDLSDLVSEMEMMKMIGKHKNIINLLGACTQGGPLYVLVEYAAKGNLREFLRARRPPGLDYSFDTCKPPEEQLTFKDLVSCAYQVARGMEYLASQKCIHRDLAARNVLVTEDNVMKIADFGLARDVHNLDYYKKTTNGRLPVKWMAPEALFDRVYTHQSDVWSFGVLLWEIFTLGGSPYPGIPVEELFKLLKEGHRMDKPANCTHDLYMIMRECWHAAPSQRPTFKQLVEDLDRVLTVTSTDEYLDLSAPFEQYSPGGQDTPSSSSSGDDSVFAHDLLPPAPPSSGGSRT
Experimental: as §1, §2, §3, §4

FGFR1 = FGFR1 (Homo sapiens (Human), UniProt P11362)
FGFR1, sequence (P11362 22-822): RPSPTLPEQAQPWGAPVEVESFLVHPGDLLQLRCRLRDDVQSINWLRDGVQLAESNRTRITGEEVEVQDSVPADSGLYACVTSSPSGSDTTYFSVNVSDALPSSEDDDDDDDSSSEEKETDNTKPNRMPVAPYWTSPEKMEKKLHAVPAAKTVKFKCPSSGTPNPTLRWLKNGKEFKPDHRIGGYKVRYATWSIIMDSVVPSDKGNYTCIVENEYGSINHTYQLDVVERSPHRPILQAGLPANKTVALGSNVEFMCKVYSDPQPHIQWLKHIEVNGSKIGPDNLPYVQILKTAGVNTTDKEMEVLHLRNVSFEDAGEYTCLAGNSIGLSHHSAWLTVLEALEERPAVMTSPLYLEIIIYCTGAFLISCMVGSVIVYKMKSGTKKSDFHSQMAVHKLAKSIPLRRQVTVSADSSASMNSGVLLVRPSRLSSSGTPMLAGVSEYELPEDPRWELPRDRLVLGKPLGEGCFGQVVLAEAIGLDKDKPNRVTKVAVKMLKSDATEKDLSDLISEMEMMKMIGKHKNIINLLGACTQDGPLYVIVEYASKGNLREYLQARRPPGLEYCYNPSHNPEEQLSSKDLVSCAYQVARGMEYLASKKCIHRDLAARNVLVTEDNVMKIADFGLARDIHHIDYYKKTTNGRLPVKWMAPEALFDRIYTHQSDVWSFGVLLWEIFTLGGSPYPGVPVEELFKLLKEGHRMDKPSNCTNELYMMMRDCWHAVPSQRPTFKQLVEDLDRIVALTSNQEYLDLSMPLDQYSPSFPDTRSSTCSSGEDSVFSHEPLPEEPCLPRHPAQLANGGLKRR
Experimental: as §1, §2, §3, §4

FGFR2 = FGFR2 (Homo sapiens (Human), UniProt P21802)
FGFR2, sequence (P21802 22-821): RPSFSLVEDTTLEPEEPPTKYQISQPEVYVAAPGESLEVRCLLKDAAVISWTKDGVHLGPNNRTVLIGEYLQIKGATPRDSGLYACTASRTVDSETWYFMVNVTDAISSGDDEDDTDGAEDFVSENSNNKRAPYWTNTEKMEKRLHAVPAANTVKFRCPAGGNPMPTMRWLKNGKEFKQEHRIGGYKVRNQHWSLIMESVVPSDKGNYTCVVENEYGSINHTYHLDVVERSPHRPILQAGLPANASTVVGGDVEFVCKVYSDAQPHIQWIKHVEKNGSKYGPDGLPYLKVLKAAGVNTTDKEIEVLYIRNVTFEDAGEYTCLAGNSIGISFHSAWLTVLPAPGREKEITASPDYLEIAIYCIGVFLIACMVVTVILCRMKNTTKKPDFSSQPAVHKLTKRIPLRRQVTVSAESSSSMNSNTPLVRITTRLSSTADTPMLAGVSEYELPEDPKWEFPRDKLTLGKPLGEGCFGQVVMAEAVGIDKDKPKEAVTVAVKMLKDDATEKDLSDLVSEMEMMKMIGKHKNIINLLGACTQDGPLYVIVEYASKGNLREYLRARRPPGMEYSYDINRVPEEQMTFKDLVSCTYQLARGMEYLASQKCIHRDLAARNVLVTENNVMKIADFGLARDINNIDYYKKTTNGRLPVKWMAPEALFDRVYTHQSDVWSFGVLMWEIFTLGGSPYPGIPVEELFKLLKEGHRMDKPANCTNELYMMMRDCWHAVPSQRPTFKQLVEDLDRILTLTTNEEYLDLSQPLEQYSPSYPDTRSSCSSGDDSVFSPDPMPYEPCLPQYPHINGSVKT
Experimental: as §1, §2, §3, §4

FGFR3 (V555M) = FGFR3 (V555M) (Homo sapiens (Human), UniProt P22607, V555M); settings: V555M mutant
FGFR3 (V555M), sequence (P22607 23-806 V555M): as the sequence (P22607 23-806) above, with V533M counted along it
Experimental: as §1, §2, §3, §4

FGFR4, sequence (P22455 22-802): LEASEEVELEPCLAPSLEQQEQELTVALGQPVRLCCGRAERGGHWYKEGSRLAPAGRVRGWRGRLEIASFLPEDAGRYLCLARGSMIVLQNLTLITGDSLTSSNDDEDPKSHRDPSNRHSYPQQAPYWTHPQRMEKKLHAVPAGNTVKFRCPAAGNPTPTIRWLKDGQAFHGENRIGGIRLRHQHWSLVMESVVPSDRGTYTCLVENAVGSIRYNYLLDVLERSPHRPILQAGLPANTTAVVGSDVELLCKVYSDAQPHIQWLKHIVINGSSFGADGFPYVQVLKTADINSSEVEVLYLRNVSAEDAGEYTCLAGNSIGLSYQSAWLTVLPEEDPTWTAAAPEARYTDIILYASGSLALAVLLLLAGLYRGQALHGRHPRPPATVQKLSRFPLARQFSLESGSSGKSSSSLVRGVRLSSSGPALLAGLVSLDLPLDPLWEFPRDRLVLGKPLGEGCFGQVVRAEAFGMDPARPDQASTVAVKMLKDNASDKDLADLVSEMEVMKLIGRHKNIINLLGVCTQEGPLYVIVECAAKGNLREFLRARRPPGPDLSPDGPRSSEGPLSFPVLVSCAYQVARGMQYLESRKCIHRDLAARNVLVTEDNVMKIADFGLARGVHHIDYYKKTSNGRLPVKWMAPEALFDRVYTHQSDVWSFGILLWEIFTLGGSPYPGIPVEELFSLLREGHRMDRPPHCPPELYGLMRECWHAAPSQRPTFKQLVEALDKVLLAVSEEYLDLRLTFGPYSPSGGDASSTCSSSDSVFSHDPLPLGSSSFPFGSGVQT

Kd (FGFR4) [nM] | Kd (FGFR3) [nM] | Kd (FGFR1) [nM] | Kd (FGFR2) [nM] | Kd (FGFR3 (V555M)) [nM] | SMILES
100 to 300 | 100 to 300 | > 300 | > 300 | 20 to 100 | Cc1cnnc(C)c1[C@H](C)Oc1ccc2[nH]nc(-c3cnc(N4CCC5(CC4)CCS(=O)(=O)C5)nc3)c2c1 [Example 154, 8-[5-[5-[(1S)-1-(3,5-dimethylpyridazin-4-yl)ethoxy]-1H-indazol-3-yl]pyrimidin-2-yl]-2λ^6-thia-8-azaspiro[4.5]decane 2,2-dioxide]
100 to 300 | > 300 | > 300 | > 300 | > 300 | Cc1cnnc(C)c1[C@H](C)Oc1ccc2[nH]nc(-c3cnc(N4CC5(C4)CN(S(C)(=O)=O)C5)nc3)c2c1 [Example 155, 5-[(1S)-1-(3,5-dimethylpyridazin-4-yl)ethoxy]-3-[2-(2-methylsulfonyl-2,6-diazaspiro[3.3]heptan-6-yl)pyrimidin-5-yl]-1H-indazole]
1 to 20 | 1 to 20 | 100 to 300 | 20 to 100 | 1 to 20 | Cc1cnnc(C)c1[C@@H](C)Oc1ccc2[nH]nc(-c3cnc(N4CC5(C4)CN(S(C)(=O)=O)C5)nc3)c2c1 [Example 156, 5-[(1R)-1-(3,5-dimethylpyridazin-4-yl)ethoxy]-3-[2-(2-methylsulfonyl-2,6-diazaspiro[3.3]heptan-6-yl)pyrimidin-5-yl]-1H-indazole]
1 to 20 | 1 to 20 | 20 to 100 | 20 to 100 | 1 to 20 | C[C@@H](Oc1ccc2[nH]nc(-c3cnc(N4CC5(CCNC5)C4)nc3)c2c1)c1c(Cl)cncc1Cl [Example 158, 3-[2-(2,7-diazaspiro[3.4]octan-2-yl)pyrimidin-5-yl]-5-[(1R)-1-(3,5-dichloro-4-pyridyl)ethoxy]-1H-indazole]
1 to 20 | 1 to 20 | 1 to 20 | 1 to 20 | 1 to 20 | C[C@@H](Oc1ccc2[nH]nc(-c3ccc(N4CC5(CCCNC5)C4)nc3)c2c1)c1c(Cl)cncc1Cl [Example 161, 3-[6-(2,8-diazaspiro[3.5]nonan-2-yl)-3-pyridyl]-5-[(1R)-1-(3,5-dichloro-4-pyridyl)ethoxy]-1H-indazole]
1 to 20 | 1 to 20 | 1 to 20 | 1 to 20 | 1 to 20 | C[C@@H](Oc1ccc2[nH]nc(-c3ccc(N4CC5(CCNC5)C4)nc3)c2c1)c1c(Cl)cncc1Cl [Example 164, 3-[6-(2,7-diazaspiro[3.4]octan-2-yl)-3-pyridyl]-5-[(1R)-1-(3,5-dichloro-4-pyridyl)ethoxy]-1H-indazole]
> 300 | 20 to 100 | 20 to 100 | 20 to 100 | 1 to 20 | C[C@@H](Oc1ccc2[nH]nc(-c3cnn(C4CCN(C5CCC5)CC4)c3)c2c1)c1cc(F)cc(F)c1 [Example 167, 3-[1-(1-cyclobutyl-4-piperidyl)pyrazol-4-yl]-5-[(1R)-1-(3,5-difluorophenyl)ethoxy]-1H-indazole]
20 to 100 | 1 to 20 | 20 to 100 | 20 to 100 | 1 to 20 | C[C@@H](Oc1ccc2[nH]nc(-c3ccc(N4CC5(CNC5)C4)nc3)c2c1)c1cc(F)cc(F)c1 [Example 169, 3-[6-(2,6-diazaspiro[3.3]heptan-2-yl)-3-pyridyl]-5-[(1R)-1-(3,5-difluorophenyl)ethoxy]-1H-indazole]
> 300 | 20 to 100 | 100 to 300 | 20 to 100 | 1 to 20 | C[C@@H](Oc1ccc2[nH]nc(-c3cnn(C4CCS(=O)(=O)CC4)c3)c2c1)c1cc(F)cc(F)c1 [Example 171, 4-[4-[5-[(1R)-1-(3,5-difluorophenyl)ethoxy]-1H-indazol-3-yl]pyrazol-1-yl]thiane 1,1-dioxide]
20 to 100 | 1 to 20 | 100 to 300 | 20 to 100 | 1 to 20 | C[C@@H](Oc1ccc2[nH]nc(-c3ccc(N4CC5(C4)CN(S(C)(=O)=O)C5)nc3)c2c1)c1cc(F)cc(F)c1 [Example 172, 5-[(1R)-1-(3,5-difluorophenyl)ethoxy]-3-[6-(2-methylsulfonyl-2,6-diazaspiro[3.3]heptan-6-yl)-3-pyridyl]-1H-indazole]
1 to 20 | 1 to 20 | 1 to 20 | 1 to 20 | 1 to 20 | Cc1cnnc(C)c1[C@@H](C)Oc1ccc2[nH]nc(-c3ccc(N4CCN5CCC[C@H]5C4)nc3)c2c1 [Example 174, 3-[6-[(8aS)-3,4,6,7,8,8a-hexahydro-1H-pyrrolo[1,2-a]pyrazin-2-yl]-3-pyridyl]-5-[(1R)-1-(3,5-dimethylpyridazin-4-yl)ethoxy]-1H-indazole]
1 to 20 | 1 to 20 | 1 to 20 | 1 to 20 | 1 to 20 | Cc1cnnc(C)c1[C@@H](C)Oc1ccc2[nH]nc(-c3ccc(N4CCN5CCC[C@@H]5C4)nc3)c2c1 [Example 175, 3-[6-[(8aR)-3,4,6,7,8,8a-hexahydro-1H-pyrrolo[1,2-a]pyrazin-2-yl]-3-pyridyl]-5-[(1R)-1-(3,5-dimethylpyridazin-4-yl)ethoxy]-1H-indazole]
1 to 20 | 1 to 20 | 1 to 20 | 1 to 20 | 1 to 20 | Cc1cnnc(C)c1[C@@H](C)Oc1ccc2[nH]nc(-c3ccc(N4CCN5C[C@H](O)C[C@H]5C4)nc3)c2c1 [Example 176, (7R,8aS)-2-[5-[5-[(1R)-1-(3,5-dimethylpyridazin-4-yl)ethoxy]-1H-indazol-3-yl]-2-pyridyl]-3,4,6,7,8,8a-hexahydro-1H-pyrrolo[1,2-a]pyrazin-7-ol]
1 to 20 | 1 to 20 | 1 to 20 | 20 to 100 | 1 to 20 | Cc1ncc(Cl)c([C@@H](C)Oc2ccc3[nH]nc(-c4ccc(N5CC6(CNC6)C5)nc4)c3c2)c1Cl [Example 177, 3-[6-(2,6-diazaspiro[3.3]heptan-2-yl)-3-pyridyl]-5-[(1R)-1-(3,5-dichloro-2-methyl-4-pyridyl)ethoxy]-1H-indazole]
1 to 20 | 1 to 20 | 1 to 20 | 1 to 20 | 1 to 20 | C[C@@H](Oc1ccc2[nH]nc(-c3ccc(N4CCN5C[C@H](O)C[C@H]5C4)nc3)c2c1)c1c(Cl)cncc1Cl [Example 178, (7R,8aS)-2-[5-[5-[(1R)-1-(3,5-dichloro-4-pyridyl)ethoxy]-1H-indazol-3-yl]-2-pyridyl]-3,4,6,7,8,8a-hexahydro-1H-pyrrolo[1,2-a]pyrazin-7-ol]
1 to 20 | 1 to 20 | 20 to 100 | 20 to 100 | 1 to 20 | Cc1ncc(Cl)c([C@@H](C)Oc2ccc3[nH]nc(-c4cnc(N5CC6(CNC6)C5)nc4)c3c2)c1Cl [Example 179, 3-[2-(2,6-diazaspiro[3.3]heptan-2-yl)pyrimidin-5-yl]-5-[(1R)-1-(3,5-dichloro-2-methyl-4-pyridyl)ethoxy]-1H-indazole]
20 to 100 | 1 to 20 | 20 to 100 | 20 to 100 | 1 to 20 | CCS(=O)(=O)N1CC2(CN(c3ccc(-c4n[nH]c5ccc(O[C@H](C)c6c(Cl)cnc(C)c6Cl)cc45)cn3)C2)C1 [Example 180, 5-[(1R)-1-(3,5-dichloro-2-methyl-4-pyridyl)ethoxy]-3-[6-(2-ethylsulfonyl-2,6-diazaspiro[3.3]heptan-6-yl)-3-pyridyl]-1H-indazole]
1 to 20 | 1 to 20 | 100 to 300 | > 300 | 1 to 20 | CCS(=O)(=O)N1CC2(CN(c3ncc(-c4n[nH]c5ccc(O[C@H](C)c6c(Cl)cnc(C)c6Cl)cc45)cn3)C2)C1 [Example 181, 5-[(1R)-1-(3,5-dichloro-2-methyl-4-pyridyl)ethoxy]-3-[2-(2-ethylsulfonyl-2,6-diazaspiro[3.3]heptan-6-yl)pyrimidin-5-yl]-1H-indazole]
1 to 20 | 1 to 20 | 20 to 100 | 1 to 20 | 1 to 20 | CCOC(=O)N1CCCC2(C1)CN(c1ccc(-c3n[nH]c4ccc(O[C@H](C)c5c(C)cnnc5C)cc34)cn1)C2 [Example 182, ethyl 2-[5-[5-[(1R)-1-(3,5-dimethylpyridazin-4-yl)ethoxy]-1H-indazol-3-yl]-2-pyridyl]-2,8-diazaspiro[3.5]nonane-8-carboxylate]
1 to 20 | 1 to 20 | 1 to 20 | 1 to 20 | 1 to 20 | C[C@@H](Oc1ccc2[nH]nc(-c3ccc(N4CCN5CCC[C@H]5C4)nc3)c2c1)c1c(Cl)cncc1Cl [Example 183, 3-[6-[(8aS)-3,4,6,7,8,8a-hexahydro-1H-pyrrolo[1,2-a]pyrazin-2-yl]-3-pyridyl]-5-[(1R)-1-(3,5-dichloro-4-pyridyl)ethoxy]-1H-indazole]
